What all share (test): cell-based
In assay [1] the target is T1, hNav1.4 (Homo sapiens, UniProt P35499).
Assay [2] concerns the target T2, hNav1.7 (Homo sapiens, UniProt Q15858). To be noted: for IC50: Nav1.7 Use IC50.
The target in assay [3] is T3, hNav1.5 (Homo sapiens, UniProt Q14524).
In assay [4] the target is T1, hNav1.4. Conditions: IonWorks Quattro, use-dependent block, hNav1.4; read-out: IWQ Use Nav1.4. On the technique in general: Patch clamp records ionic current or voltage across a cell membrane.
In assay [5] the target is T3, hNav1.5. Conditions: IonWorks Quattro, use-dependent block, hNav1.5; read-out: IWQ Use Nav1.5.
A further assay concerns the target hNav1.3 (Homo sapiens, UniProt Q9NY46). Conditions: IonWorks Quattro, use-dependent block, hNav1.3; read-out: IWQ Use Nav1.3.
Assay [6] concerns the target T2, hNav1.7. It is filed as cell-based. To be noted: for IC50: IonWorks Quattro, use-dependent block, hNav1.7, read-out: IWQ Use Nav1.7; for Nav1.7/Nav1.3: ratio of IWQ Use values, Nav1.7 over Nav1.3.

Like-named read-outs stand apart in the source and are kept apart here. Positions of bridges follow the written chain, without caps; N, C: chain ends. Residues, ends and D or L forms follow the SMILES beside them.

T1 sequence (P35499 whole entry, looked up): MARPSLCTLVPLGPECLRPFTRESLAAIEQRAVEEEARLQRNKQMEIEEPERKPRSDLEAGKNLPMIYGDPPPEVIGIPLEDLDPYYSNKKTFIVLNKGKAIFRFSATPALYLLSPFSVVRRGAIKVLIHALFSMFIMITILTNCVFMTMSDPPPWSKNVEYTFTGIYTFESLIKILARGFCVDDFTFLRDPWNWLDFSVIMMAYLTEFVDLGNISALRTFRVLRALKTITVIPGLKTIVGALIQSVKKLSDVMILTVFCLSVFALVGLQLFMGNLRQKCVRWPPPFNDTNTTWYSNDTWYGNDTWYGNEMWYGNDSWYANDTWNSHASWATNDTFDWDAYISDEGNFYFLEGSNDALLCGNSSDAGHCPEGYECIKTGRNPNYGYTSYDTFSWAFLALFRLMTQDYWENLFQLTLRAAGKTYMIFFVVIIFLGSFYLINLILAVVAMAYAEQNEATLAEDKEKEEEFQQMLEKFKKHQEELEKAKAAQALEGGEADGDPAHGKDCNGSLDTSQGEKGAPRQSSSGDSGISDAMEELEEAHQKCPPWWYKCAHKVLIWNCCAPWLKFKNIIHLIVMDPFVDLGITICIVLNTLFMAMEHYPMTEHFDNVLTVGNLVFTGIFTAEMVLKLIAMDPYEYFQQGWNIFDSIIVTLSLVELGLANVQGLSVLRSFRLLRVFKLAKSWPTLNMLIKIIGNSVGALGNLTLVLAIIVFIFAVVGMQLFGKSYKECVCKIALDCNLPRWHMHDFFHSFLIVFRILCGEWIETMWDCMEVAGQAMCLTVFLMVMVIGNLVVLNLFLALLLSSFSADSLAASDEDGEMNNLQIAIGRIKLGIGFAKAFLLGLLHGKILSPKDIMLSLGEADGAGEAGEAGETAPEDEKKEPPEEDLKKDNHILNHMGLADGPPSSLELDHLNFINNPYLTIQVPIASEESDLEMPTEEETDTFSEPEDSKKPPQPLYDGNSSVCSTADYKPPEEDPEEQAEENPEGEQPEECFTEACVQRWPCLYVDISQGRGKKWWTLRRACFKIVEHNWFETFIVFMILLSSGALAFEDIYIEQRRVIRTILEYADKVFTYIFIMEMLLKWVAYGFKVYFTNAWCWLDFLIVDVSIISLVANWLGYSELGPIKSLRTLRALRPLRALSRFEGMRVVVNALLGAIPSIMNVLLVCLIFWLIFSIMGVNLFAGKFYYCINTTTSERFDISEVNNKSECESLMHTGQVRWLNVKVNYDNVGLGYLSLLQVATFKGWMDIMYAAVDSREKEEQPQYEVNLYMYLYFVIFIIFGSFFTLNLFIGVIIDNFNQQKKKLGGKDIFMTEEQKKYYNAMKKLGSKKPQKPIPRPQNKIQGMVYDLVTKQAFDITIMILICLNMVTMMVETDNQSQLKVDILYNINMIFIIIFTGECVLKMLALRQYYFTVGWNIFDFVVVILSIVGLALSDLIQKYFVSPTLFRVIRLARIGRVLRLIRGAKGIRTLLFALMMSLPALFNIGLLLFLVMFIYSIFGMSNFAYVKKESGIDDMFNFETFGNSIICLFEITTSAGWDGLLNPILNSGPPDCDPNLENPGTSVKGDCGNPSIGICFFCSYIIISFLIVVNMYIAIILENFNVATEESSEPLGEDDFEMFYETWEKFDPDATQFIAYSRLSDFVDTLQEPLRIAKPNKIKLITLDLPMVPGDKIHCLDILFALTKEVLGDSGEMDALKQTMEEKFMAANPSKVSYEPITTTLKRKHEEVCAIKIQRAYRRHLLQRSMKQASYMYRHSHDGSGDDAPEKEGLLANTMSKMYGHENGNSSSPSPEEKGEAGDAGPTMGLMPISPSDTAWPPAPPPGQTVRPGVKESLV
T2 sequence (Q15858 whole entry, looked up): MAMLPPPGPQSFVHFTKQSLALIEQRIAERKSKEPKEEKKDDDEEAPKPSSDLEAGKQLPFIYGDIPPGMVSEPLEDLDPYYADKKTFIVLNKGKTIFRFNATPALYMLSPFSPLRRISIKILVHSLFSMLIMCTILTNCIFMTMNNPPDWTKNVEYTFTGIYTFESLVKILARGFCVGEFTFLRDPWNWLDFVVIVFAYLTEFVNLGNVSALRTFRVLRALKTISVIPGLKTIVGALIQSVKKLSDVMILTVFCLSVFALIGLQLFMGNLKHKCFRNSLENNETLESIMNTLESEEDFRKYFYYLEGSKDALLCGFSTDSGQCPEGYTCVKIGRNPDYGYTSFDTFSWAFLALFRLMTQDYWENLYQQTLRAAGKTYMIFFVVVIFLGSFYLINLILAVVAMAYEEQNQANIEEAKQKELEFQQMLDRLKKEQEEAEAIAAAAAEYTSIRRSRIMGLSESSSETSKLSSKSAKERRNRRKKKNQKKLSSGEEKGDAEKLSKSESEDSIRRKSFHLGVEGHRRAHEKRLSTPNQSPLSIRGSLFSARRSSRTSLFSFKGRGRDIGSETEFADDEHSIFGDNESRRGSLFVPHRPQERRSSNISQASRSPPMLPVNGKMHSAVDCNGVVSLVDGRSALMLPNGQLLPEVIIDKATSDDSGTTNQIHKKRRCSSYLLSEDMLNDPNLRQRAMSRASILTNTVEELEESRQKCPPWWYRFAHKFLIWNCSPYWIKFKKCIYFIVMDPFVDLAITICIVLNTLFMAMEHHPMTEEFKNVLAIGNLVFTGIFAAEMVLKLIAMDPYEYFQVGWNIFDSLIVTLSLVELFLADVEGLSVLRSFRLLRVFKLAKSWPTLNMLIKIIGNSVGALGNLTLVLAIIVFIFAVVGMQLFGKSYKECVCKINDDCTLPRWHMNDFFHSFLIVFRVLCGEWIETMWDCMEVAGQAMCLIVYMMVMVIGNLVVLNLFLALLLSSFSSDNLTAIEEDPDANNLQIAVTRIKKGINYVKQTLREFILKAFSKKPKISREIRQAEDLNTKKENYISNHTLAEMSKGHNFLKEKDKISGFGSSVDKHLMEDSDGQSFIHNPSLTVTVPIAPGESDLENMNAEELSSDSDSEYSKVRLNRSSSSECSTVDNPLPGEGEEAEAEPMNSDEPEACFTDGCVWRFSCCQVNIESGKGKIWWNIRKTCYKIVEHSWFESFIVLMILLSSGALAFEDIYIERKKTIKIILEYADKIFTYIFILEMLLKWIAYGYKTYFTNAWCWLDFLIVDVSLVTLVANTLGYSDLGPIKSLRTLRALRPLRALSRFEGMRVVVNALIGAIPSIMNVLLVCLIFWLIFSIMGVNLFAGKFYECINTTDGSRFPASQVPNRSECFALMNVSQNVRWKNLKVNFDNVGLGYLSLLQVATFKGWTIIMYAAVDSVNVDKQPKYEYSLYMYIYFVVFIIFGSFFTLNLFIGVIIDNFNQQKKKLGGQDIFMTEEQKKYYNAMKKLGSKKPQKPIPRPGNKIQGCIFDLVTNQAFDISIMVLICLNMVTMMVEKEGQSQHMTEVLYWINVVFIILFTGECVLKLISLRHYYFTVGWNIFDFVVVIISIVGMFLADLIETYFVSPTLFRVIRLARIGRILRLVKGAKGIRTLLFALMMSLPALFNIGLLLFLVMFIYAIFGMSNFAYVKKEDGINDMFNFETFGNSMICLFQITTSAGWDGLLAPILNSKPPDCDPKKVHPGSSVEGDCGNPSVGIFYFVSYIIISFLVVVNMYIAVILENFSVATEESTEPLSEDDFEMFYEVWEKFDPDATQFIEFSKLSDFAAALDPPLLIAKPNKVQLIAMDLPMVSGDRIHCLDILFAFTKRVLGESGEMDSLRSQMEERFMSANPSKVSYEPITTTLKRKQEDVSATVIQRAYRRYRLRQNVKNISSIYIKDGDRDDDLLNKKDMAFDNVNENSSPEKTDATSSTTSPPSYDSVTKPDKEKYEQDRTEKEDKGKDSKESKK

Take `CC[C@H](C)[C@@H]1NC(=O)[C@@H]2CSSC[C@@H]3NC(=O)[C@H](C(C)C)NC(=O)[C@H](CC(C)C)NC(=O)[C@H](CC(N)=O)NC(=O)[C@@H]4CCCN4C(=O)[C@H](CCCNC(=N)N)NC(=O)[C@H](CSSC[C@H](NC(=O)[C@@H](N)CC(=O)O)C(=O)N[C@@H](CC(C)C)C(=O)NCC(=O)N[C@@H](C)C(=O)N[C@@H](CC(C)C)C(=O)N[C@@H](CCCNC(=N)N)C(=O)N[C@@H](CCCCN)C(=O)N2)NC(=O)[C@H](CSSC[C@@H](C(=O)N[C@@H](CCCCN)C(=O)N[C@@H](Cc2ccc(O)cc2)C(=O)N[C@H](C(=O)N[C@@H](Cc2ccccc2)C(N)=O)C(C)C)NC(=O)[C@H](Cc2c[nH]c4ccccc24)NC(=O)[C@H](CCCNC(=N)N)NC(=O)[C@H](Cc2c[nH]cn2)NC(=O)[C@H](CC(C)C)NC(=O)[C@H](CCCNC(=N)N)NC(=O)[C@H](CO)NC3=O)NC(=O)[C@H](CCCCN)NC(=O)[C@H](CC(=O)O)NC(=O)[C@H](Cc2cn(CCOCCOCCOCCOCCOCCOCCOCCOCCOCCOCCOCCNC(=O)CSCCO)nn2)NC(=O)[C@H](CC(=O)O)NC(=O)[C@@H]2CCCN2C1=O`: the IC50 was over 10 µM at hNav1.4 [1] (Nav1.4 Use IC50), 0.021 µM against hNav1.7 [2] and over 10 µM on hNav1.5 [3]. For the same molecule, the “Nav1.4/Nav1.7 Use” value at hNav1.7 [2] is listed as over 476. At hNav1.7 [2], the “Nav1.5/Nav1.7 Use” value is over 476.
On to `CC(C)C[C@@H]1NC(=O)[C@H](C)NC(=O)CNC(=O)[C@H](CC(C)C)NC(=O)[C@@H](NC(=O)[C@@H](N)CC(=O)O)CSSC[C@@H]2NC(=O)[C@@H]3CSSC[C@@H](C(=O)N[C@@H](CCCCN)C(=O)N[C@@H](Cc4ccc(O)cc4)C(=O)N[C@H](C(=O)N[C@@H](Cc4ccccc4)C(N)=O)C(C)C)NC(=O)[C@H](Cc4c[nH]c5ccccc45)NC(=O)[C@H](CCCNC(=N)N)NC(=O)[C@H](Cc4c[nH]cn4)NC(=O)[C@H](CC(C)C)NC(=O)[C@H](CCCNC(=N)N)NC(=O)[C@H](CO)NC(=O)[C@H](CSSC[C@H](NC(=O)[C@H](CCCCN)NC(=O)[C@H](CCCNC(=N)N)NC1=O)C(=O)N[C@@H](CCC(=O)O)C(=O)N1CCC[C@H]1C(=O)N[C@@H](CC(=O)O)C(=O)N[C@@H](Cc1cn(CCOCCOCCOCCOCCOCCOCCOCCOCCOCCOCCOCCNC(=O)CSCCO)nn1)C(=O)N[C@@H](CC(=O)O)C(=O)N[C@@H](CCCCN)C(=O)N3)NC(=O)[C@H](C(C)C)NC(=O)[C@H](CC(C)C)NC(=O)[C@H](CC(N)=O)NC(=O)[C@@H]1CCCN1C(=O)[C@H](CCCNC(=N)N)NC2=O`, for which, at hNav1.4 [1] (Nav1.4 Use IC50), the IC50 was over 10 µM. In addition, at hNav1.7 [2], the “Nav1.4/Nav1.7 Use” value is recorded as over 185, the “Nav1.5/Nav1.7 Use” value was over 185 and the IC50 came out at 0.054 µM. On hNav1.5 [3], this molecule had an IC50 of over 10 µM.
Take `CC(C)C[C@@H]1NC(=O)[C@@H](NC(=O)[C@@H](N)CC(=O)O)CSSC[C@@H]2NC(=O)[C@@H]3CSSC[C@@H](C(=O)N[C@@H](CCCCN)C(=O)N[C@@H](Cc4ccc(O)cc4)C(=O)N[C@H](C(=O)N[C@@H](Cc4ccccc4)C(N)=O)C(C)C)NC(=O)[C@H](Cc4c[nH]c5ccccc45)NC(=O)[C@H](CCCNC(=N)N)NC(=O)[C@H](Cc4c[nH]cn4)NC(=O)[C@H](CC(C)C)NC(=O)[C@H](CCCNC(=N)N)NC(=O)[C@H](CO)NC(=O)[C@H](CSSC[C@H](NC(=O)[C@H](CCCCN)NC(=O)[C@H](CCCNC(=N)N)NC(=O)[C@H](Cc4ccccc4)NC(=O)[C@H](C)NC(=O)CNC1=O)C(=O)N[C@@H](CCC(=O)O)C(=O)N1CCC[C@H]1C(=O)N[C@@H](CC(=O)O)C(=O)N[C@@H](Cc1cn(CCOCCOCCOCCOCCOCCOCCOCCOCCOCCOCCOCCNC(=O)CSCCO)nn1)C(=O)N[C@@H](CC(=O)O)C(=O)N[C@@H](CCCCN)C(=O)N3)NC(=O)[C@H](C(C)C)NC(=O)[C@H](CC(C)C)NC(=O)[C@H](CC(N)=O)NC(=O)[C@@H]1CCCN1C(=O)[C@H](CCCNC(=N)N)NC2=O`: the results for the IC50 on hNav1.4 [1] (Nav1.4 Use IC50), against hNav1.7 [2] and at hNav1.5 [3] were over 10 µM, 0.021 µM and over 10 µM, respectively. Moreover, the “Nav1.4/Nav1.7 Use” value at hNav1.7 [2] is over 476. Moreover, the “Nav1.5/Nav1.7 Use” value at hNav1.7 [2] is on record as over 476.
Regarding `CC[C@H](C)[C@@H]1NC(=O)[C@@H]2CSSC[C@@H]3NC(=O)[C@H](C(C)C)NC(=O)[C@H](CC(C)C)NC(=O)[C@H](CC(N)=O)NC(=O)[C@@H]4CCCN4C(=O)[C@H](CCCNC(=N)N)NC(=O)[C@H](CSSC[C@H](NC(=O)[C@H](CC(=O)O)NC(=O)[C@H](CO)NC(=O)CN)C(=O)N[C@@H](CC(C)C)C(=O)NCC(=O)N[C@@H](C)C(=O)N[C@@H](CC(C)C)C(=O)N[C@@H](CCCNC(=N)N)C(=O)N[C@@H](CCCCN)C(=O)N2)NC(=O)[C@H](CSSC[C@@H](C(=O)N[C@@H](CCCCN)C(=O)N[C@@H](Cc2ccc(O)cc2)C(=O)N[C@H](C(=O)N[C@@H](Cc2ccccc2)C(=O)N[C@@H](Cc2c[nH]c4ccccc24)C(=O)O)C(C)C)NC(=O)[C@H](Cc2c[nH]c4ccccc24)NC(=O)[C@H](CCCNC(=N)N)NC(=O)[C@H](Cc2c[nH]cn2)NC(=O)[C@H]([C@@H](C)O)NC(=O)[C@H](CCCNC(=N)N)NC(=O)[C@H](CO)NC3=O)NC(=O)[C@H](CCCCN)NC(=O)[C@H](CC(=O)O)NC(=O)[C@H](CC(N)=O)NC(=O)[C@H](CC(=O)O)NC(=O)[C@@H]2CCCN2C1=O` [compound 816] (H-GSDCLGALRKCIPDNDKCCRPNLVCSRTHRWCKYVFW-OH; disulfide 4-19, 11-25, 18-32), the IC50 at hNav1.4 [4], on hNav1.5 [5], at hNav1.3 and at hNav1.7 [6] was over 5 µM in each case.
Consider `CC[C@H](C)[C@@H]1NC(=O)[C@@H]2CSSC[C@@H]3NC(=O)[C@H](C(C)C)NC(=O)[C@H](CC(C)C)NC(=O)[C@H](CC(N)=O)NC(=O)[C@@H]4CCCN4C(=O)[C@H](CCCNC(=N)N)NC(=O)[C@H](CSSC[C@H](NC(=O)[C@H](CC(=O)O)NC(=O)[C@H](CO)NC(=O)CN)C(=O)N[C@@H](CC(C)C)C(=O)NCC(=O)N[C@@H](C)C(=O)N[C@@H](CC(C)C)C(=O)N[C@@H](CCCNC(=N)N)C(=O)N[C@@H](CCCCN)C(=O)N2)NC(=O)[C@H](CSSC[C@@H](C(=O)N[C@@H](CCCCN)C(=O)N[C@@H](Cc2ccc(O)cc2)C(=O)N[C@H](C(=O)N[C@@H](Cc2ccccc2)C(=O)N[C@@H](Cc2ccccc2)C(=O)O)C(C)C)NC(=O)[C@H](Cc2c[nH]c4ccccc24)NC(=O)[C@H](CCCNC(=N)N)NC(=O)[C@H](Cc2c[nH]cn2)NC(=O)[C@H]([C@@H](C)O)NC(=O)[C@H](CCCNC(=N)N)NC(=O)[C@H](CO)NC3=O)NC(=O)[C@H](CCCCN)NC(=O)[C@H](CC(=O)O)NC(=O)[C@H](CC(N)=O)NC(=O)[C@H](CC(=O)O)NC(=O)[C@@H]2CCCN2C1=O` [compound 820] (H-GSDCLGALRKCIPDNDKCCRPNLVCSRTHRWCKYVFF-OH; disulfide 4-19, 11-25, 18-32), for which the IC50 at hNav1.4 [4] was over 5 µM; on hNav1.5 [5], over 5 µM; at hNav1.3, 0.5 µM; on hNav1.7 [6] it was 0.5 µM. Besides, the Nav1.7/Nav1.3 at hNav1.7 [6] turned out to be 1.0.
With `CC[C@H](C)[C@@H]1NC(=O)[C@@H]2CSSC[C@@H]3NC(=O)[C@H](C(C)C)NC(=O)[C@H](CC(C)C)NC(=O)[C@H](CC(N)=O)NC(=O)[C@@H]4CCCN4C(=O)[C@H](CCCNC(=N)N)NC(=O)[C@H](CSSC[C@H](NC(=O)[C@H](CC(=O)O)NC(=O)[C@H](CO)NC(=O)CN)C(=O)N[C@@H](CC(C)C)C(=O)NCC(=O)N[C@@H](C)C(=O)N[C@@H](CC(C)C)C(=O)N[C@@H](CCCNC(=N)N)C(=O)N[C@@H](CCCCN)C(=O)N2)NC(=O)[C@H](CSSC[C@@H](C(=O)N[C@@H](CCCCN)C(=O)N[C@@H](Cc2ccc(O)cc2)C(=O)N[C@H](C(=O)N[C@@H](Cc2ccccc2)C(=O)O)C(C)C)NC(=O)[C@H](Cc2c[nH]c4ccccc24)NC(=O)[C@H](CCCNC(=N)N)NC(=O)[C@H](Cc2c[nH]cn2)NC(=O)[C@H]([C@@H](C)O)NC(=O)[C@H](CCCNC(=N)N)NC(=O)[C@H](CO)NC3=O)NC(=O)[C@H](CCCCN)NC(=O)[C@H](CC(=O)O)NC(=O)[C@H](CC(N)=O)NC(=O)[C@H](CC(=O)O)NC(=O)[C@@H]2CCCN2C1=O` [compound 822] (H-GSDCLGALRKCIPDNDKCCRPNLVCSRTHRWCKYVF-OH; disulfide 4-19, 11-25, 18-32), the IC50 was over 5 µM at hNav1.4 [4], over 5 µM at hNav1.5 [5], 3.7 µM at hNav1.3 and 3.7 µM at hNav1.7 [6]. Also, the Nav1.7/Nav1.3 on hNav1.7 [6] came out at 1.0.
As for “Biotin-Ahx-[Ala5,Phe6,Atz(2 kDa EtO-PEG*-{Biotin-Ahx-[Ala5,Phe6,Atz13*,Leu26,Arg28]GpTx-1(1-34)})13,Leu26,Arg28]GpTx-1(1-34) [Homodimeric Conjugate 4]”, the IC50 on hNav1.4 [1] (read-out: Nav1.4 Use IC50) was 3.43 µM; at hNav1.5 [3] (read-out: Nav1.5 Use IC50), over 10 µM.

The values are drawn from patent US9340590B2 (priority 2011, dated 2016).
